Data: ChEMBL document CHEMBL5543117, “Novel TLR4-Activating Vaccine Adjuvant Enhances the Production of Enterococcus faecium-binding Antibodies” (J Med Chem, 2024)
Activity calls are given as the source filed them. The calls are words filed in the database; no cut-off is given here.

Columns and labels:
[1] = molecular target: Toll-like receptor 4 (Homo sapiens) (UniProt O00206); assay: Agonist activity at human TLR4 in HEK-Blue hTLR4 cells assessed as increase in SEAP level incubated for 16 to 18 hrs by SEAP reporter gene based Quanti-Blue assay; format: cell-based; conditions: filed as agonist, dose 0.1-25 µM, time 16-18 hrs
Chain of Toll-like receptor 4 (Homo sapiens) (O00206 whole entry): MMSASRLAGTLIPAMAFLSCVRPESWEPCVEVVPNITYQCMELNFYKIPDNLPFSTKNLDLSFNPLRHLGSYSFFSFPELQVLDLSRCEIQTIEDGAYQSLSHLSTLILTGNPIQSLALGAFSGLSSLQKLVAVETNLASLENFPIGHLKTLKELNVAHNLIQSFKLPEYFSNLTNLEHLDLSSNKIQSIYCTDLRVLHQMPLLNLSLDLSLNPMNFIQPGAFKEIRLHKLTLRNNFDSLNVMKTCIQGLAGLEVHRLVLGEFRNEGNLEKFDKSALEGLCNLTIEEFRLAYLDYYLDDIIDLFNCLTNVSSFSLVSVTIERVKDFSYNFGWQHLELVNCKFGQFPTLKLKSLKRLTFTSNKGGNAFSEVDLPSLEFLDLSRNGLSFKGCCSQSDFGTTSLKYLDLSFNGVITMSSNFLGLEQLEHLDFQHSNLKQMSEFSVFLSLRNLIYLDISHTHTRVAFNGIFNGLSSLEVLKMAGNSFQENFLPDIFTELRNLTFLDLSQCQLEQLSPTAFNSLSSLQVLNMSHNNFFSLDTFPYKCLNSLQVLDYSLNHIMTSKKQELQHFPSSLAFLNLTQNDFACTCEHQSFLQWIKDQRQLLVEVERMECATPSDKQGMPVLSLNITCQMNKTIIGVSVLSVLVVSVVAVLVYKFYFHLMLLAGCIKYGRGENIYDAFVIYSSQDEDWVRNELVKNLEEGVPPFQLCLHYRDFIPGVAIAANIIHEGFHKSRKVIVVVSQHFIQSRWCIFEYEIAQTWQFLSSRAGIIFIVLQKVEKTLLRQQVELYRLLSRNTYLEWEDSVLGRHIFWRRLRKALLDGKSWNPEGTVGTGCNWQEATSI

[2] = molecular target: Toll-like receptor 2 (Homo sapiens) (UniProt O60603); assay: Agonist activity at human TLR2 in HEK-Blue hTLR2 cells assessed as increase in SEAP level at 0.1 to 25 uM incubated for 16 to 18 hrs by SEAP reporter gene based Quanti-Blue assay; format: cell-based; conditions: dose 0.1-25 µM, time 16-18 hrs
Chain of Toll-like receptor 2 (Homo sapiens) (O60603 whole entry): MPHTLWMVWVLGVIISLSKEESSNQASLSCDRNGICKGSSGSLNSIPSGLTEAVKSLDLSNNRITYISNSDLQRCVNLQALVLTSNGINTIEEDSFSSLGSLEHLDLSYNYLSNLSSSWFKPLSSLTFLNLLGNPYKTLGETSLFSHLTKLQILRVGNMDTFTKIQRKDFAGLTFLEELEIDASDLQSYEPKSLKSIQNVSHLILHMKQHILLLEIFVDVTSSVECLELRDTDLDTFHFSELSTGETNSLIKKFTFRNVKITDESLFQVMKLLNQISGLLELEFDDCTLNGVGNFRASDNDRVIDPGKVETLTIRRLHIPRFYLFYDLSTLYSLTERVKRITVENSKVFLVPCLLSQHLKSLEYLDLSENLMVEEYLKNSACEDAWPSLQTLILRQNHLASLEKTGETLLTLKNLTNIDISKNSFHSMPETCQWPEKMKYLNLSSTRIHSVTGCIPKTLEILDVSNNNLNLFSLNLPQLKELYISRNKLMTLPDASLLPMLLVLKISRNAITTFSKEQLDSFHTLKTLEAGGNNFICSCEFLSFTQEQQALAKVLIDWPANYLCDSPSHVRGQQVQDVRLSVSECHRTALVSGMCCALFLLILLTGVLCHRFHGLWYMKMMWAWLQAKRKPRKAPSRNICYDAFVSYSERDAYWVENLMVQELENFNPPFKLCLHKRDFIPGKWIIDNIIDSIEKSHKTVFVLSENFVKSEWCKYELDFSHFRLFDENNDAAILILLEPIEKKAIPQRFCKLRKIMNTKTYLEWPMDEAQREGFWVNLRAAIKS

THP1-Xblue [3] = assay: Immunostimulatory activity in human THP1-Xblue cells assessed as increase in TNF-alpha release incubated for 16 to 18 hrs by ELISA; format: functional, cell-based; conditions: dose 0.1-10 µM, time 16-18 hrs
THP1-Xblue [4] = assay: Immunostimulatory activity in human THP1-Xblue cells assessed as increase in IL-1beta release incubated for 16 to 18 hrs by ELISA; format: functional, cell-based; conditions: dose 0.1-10 µM, time 16-18 hrs
THP1-Xblue [5] = assay: Immunostimulatory activity in human THP1-Xblue cells assessed as increase in IL-6 release incubated for 16 to 18 hrs by ELISA; format: functional, cell-based; conditions: dose 0.1-10 µM, time 16-18 hrs
[6] = molecular target: Toll-like receptor 4 (Homo sapiens) (UniProt O00206); assay: Agonist activity at TLR4 in human THP1-Xblue cells assessed as increase in SEAP level at 0.1 to 10 uM incubated for 16 to 18 hrs by SEAP reporter gene based Quanti-Blue assay; format: cell-based; conditions: filed as agonist, dose 0.1-10 µM, time 16-18 hrs
[7] = molecular target: Toll-like receptor 4 (Homo sapiens) (UniProt O00206); assay: Agonist activity at TLR4 in human THP1-Xblue cells assessed as induction of IkappaBalpha degradation at 10 uM incubated for 15 mins by immunoblotting analysis; format: cell-based; conditions: filed as agonist
[8] = molecular target: Toll-like receptor 4 (Homo sapiens) (UniProt O00206); assay: Agonist activity at TLR4 in human THP1-Xblue cells assessed as induction of p65 phosphorylation at 10 uM incubated for 120 to 240 mins by immunoblotting analysis; format: cell-based; conditions: filed as agonist, time 120-240 min
[9] = molecular target: Transcription factor p65 (Homo sapiens) (UniProt Q04206); assay: Induction of NFkappaB p65 nuclear translocation in human THP1-Xblue cells assessed as percentage of positive nuclei at 10 uM measured after 90 mins by Hoechst 33342 staining based immunofluorescence analysis relative to control (reference value: 0%); format: cell-based
Chain of Transcription factor p65 (Homo sapiens) (Q04206 whole entry): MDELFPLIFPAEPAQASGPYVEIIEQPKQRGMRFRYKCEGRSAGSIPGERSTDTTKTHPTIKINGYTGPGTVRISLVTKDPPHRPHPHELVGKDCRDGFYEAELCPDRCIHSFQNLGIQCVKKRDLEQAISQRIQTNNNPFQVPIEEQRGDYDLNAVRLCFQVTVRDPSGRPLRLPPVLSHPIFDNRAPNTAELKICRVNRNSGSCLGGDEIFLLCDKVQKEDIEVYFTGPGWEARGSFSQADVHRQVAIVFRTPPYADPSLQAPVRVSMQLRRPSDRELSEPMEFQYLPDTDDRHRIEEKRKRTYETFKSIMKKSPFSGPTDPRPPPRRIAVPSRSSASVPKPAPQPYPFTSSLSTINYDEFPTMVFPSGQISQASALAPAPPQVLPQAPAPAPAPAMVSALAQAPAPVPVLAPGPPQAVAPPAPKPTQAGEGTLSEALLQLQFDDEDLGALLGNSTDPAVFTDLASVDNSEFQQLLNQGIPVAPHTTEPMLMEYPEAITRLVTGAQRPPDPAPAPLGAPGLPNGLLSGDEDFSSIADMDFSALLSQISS

[10] = molecular target: Transcription factor p65 (Homo sapiens) (UniProt Q04206); assay: Induction of NFkappaB p65 nuclear translocation in human THP1-Xblue cells assessed as percentage of positive nuclei at 10 uM measured after 120 mins by Hoechst 33342 staining based immunofluorescence analysis (reference value: 0%); format: cell-based
[11] = Cytotoxicity against human THP1-Xblue cells assessed as reduction in cell viability at 0.1 to 10 uM incubated for 16 to 18 hrs by MTT assay; format: toxicity, cell-based; conditions: dose lower 0.1 µM, time lower 16 hrs, dose upper 10 µM, time upper 18 hrs
THP1-Xblue [12] = assay: Activation of TRAM/TRIF pathway in human THP1-Xblue cells assessed as increase in IRF3 phosphorylation by Western blot analysis; format: cell-based
THP1-Xblue [13] = assay: Activation of TRAM/TRIF pathway in human THP1-Xblue cells assessed as increase in STAT1 phosphorylation by Western blot analysis; format: cell-based
THP1-Xblue [14] = assay: Activation of TRAM/TRIF pathway in human THP1-Xblue cells assessed as induction of phosphorylated IRF3 nuclear translocation by immunofluorescence analysis; format: cell-based
THP1-Xblue [15] = assay: Induction of IFN-beta production in human THP1-Xblue cells; format: functional, cell-based
Mus musculus [16] = assay: Adjuvant activity in OVA-immunized C57BL/6J mouse model assessed as increase in IgG levels at 10 ug, sc administered on day 0 and as booster dose on day 21 and measured after 42 days by ELISA; format: functional, organism-based; conditions: dose 10.0 µg, time 42.0 day
Mus musculus [17] = assay: Adjuvant activity in OVA-immunized C57BL/6J mouse model assessed as increase in IgG1 levels at 10 ug, sc administered on day 0 and as booster dose on day 21 and measured after 42 days by ELISA; format: functional, organism-based; conditions: dose 10.0 µg, time 42.0 day
Mus musculus [18] = assay: Adjuvant activity in OVA-immunized C57BL/6J mouse model assessed as increase in IgG2c levels at 10 ug, sc administered on day 0 and as booster dose on day 21 and measured after 42 days by ELISA; format: functional, organism-based; conditions: dose 10.0 µg, time 42.0 day
Mus musculus [19] = assay: Effect on IgG2b levels in OVA-immunized C57BL/6J mouse model at 10 ug, sc administered on day 0 and as booster dose on day 21 and measured after 42 days by ELISA; format: functional, organism-based; conditions: dose 10.0 µg, time 42.0 day
[20] = Toxicity in OVA-immunized C57BL/6J mouse model assessed as change in body weight at 10 ug, SC administered on day 0 and measured after 4 days; conditions: in vivo, 96 h, dose 10 µg, time 4 day
[21] = Toxicity in OVA-immunized C57BL/6J mouse model assessed as change in ALT level at 10 ug, SC administered on day 0 and as booster dose on day 20 and measured after 40 days; conditions: in vivo, 960 h, dose 10 µg, time 40 day
[22] = Toxicity in OVA-immunized C57BL/6J mouse model assessed as change in AST level at 10 ug, SC administered on day 0 and as booster dose on day 20 and measured after 40 days; conditions: in vivo, 960 h, dose 10 µg, time 40 day
Oryctolagus cuniculus [23] = assay: Adjuvant activity in Enterococcus faecium PpiC-immunized New Zealand rabbit model assessed as production of PpiC specific antibody in sera at 38.4 ug administered on day 0, 7.7 ug on day 7 and 14 and measured after 28 days by ELISA; format: functional, organism-based; conditions: time 28.0 day
Oryctolagus cuniculus [24] = assay: Induction of antibody production in New Zealand rabbit at 38.4 ug administered on day 0, 7.7 ug on day 7 and 14 and measured after 28 days by ELISA; format: functional, organism-based; conditions: time 28.0 day
Oryctolagus cuniculus [25] = assay: Adjuvant activity in Enterococcus faecium PpiC-immunized New Zealand rabbit model assessed as production of PpiC specific antibody in sera at 1:50 dilutions at 38.4 ug administered on day 0, 7.7 ug on day 7 and 14 and measured after 28 days by absorbance based analysis; format: functional, organism-based; conditions: time 28.0 day
Oryctolagus cuniculus [26] = assay: Adjuvant activity in Enterococcus faecium PpiC-immunized New Zealand rabbit model assessed as production of PpiC specific antibody in sera at 1:100 dilutions at 38.4 ug administered on day 0, 7.7 ug on day 7 and 14 and measured after 28 days by absorbance based analysis; format: functional, organism-based; conditions: time 28.0 day
Oryctolagus cuniculus [27] = assay: Adjuvant activity in Enterococcus faecium PpiC-immunized New Zealand rabbit model assessed as production of PpiC specific antibody in sera at 1:25600 dilutions at 38.4 ug administered on day 0, 7.7 ug on day 7 and 14 and measured after 28 days by absorbance based analysis; format: functional, organism-based; conditions: time 28.0 day
Oryctolagus cuniculus [28] = assay: Adjuvant activity in Enterococcus faecium PpiC-immunized New Zealand rabbit model assessed as production of PpiC specific antibody in terminal bleed sera at 1:1600 dilutions at 38.4 ug administered on day 0, 7.7 ug on day 7 and 14 and measured after 28 days by ELISA; format: functional, organism-based; conditions: time 28.0 day
Oryctolagus cuniculus [29] = assay: Adjuvant activity in Enterococcus faecium PpiC-immunized New Zealand rabbit model assessed as antibody production by measuring increase in vancomycin resistant Enterococcus faecium 11236/1 specific antibodies at 38.2 ug administered on day 0, 7.7 ug on day 7 and 14 and measured after 28 days by Whole-bacterial cell ELISA; format: functional, organism-based; conditions: time 28.0 day
THP1-Xblue [30] = assay: Immunostimulatory activity in human THP1-Xblue cells assessed as increase in IL-6 release at 0.1 to 10 uM incubated for 16 to 18 hrs by ELISA; format: functional, cell-based; conditions: dose 0.1-10 µM, time 16-18 hrs
Mus musculus [31] = assay: Adjuvant activity in OVA-immunized C57BL/6J mouse model assessed as increase in IgG2b levels at 10 ug, sc administered on day 0 and as booster dose on day 21 and measured after 42 days by ELISA; format: functional, organism-based; conditions: dose 10.0 µg, time 42.0 day
Oryctolagus cuniculus [32] = assay: Adjuvant activity in Enterococcus faecium PpiC-immunized New Zealand rabbit model assessed as production of PpiC specific antibody in sera at 70.2 ug administered on day 0, 14 ug on day 7 and 14 and measured after 28 days by ELISA; format: functional, organism-based; conditions: time 28.0 day
Oryctolagus cuniculus [33] = assay: Adjuvant activity in Enterococcus faecium PpiC-immunized New Zealand rabbit model assessed as production of PpiC specific antibody in sera at 1:50 dilutions at 70.2 ug administered on day 0, 14 ug on day 7 and 14 and measured after 28 days by absorbance based analysis; format: functional, organism-based; conditions: time 28.0 day
Oryctolagus cuniculus [34] = assay: Adjuvant activity in Enterococcus faecium PpiC-immunized New Zealand rabbit model assessed as production of PpiC specific antibody in sera at 1:100 dilutions at 70.2 ug administered on day 0, 14 ug on day 7 and 14 and measured after 28 days by absorbance based analysis; format: functional, organism-based; conditions: time 28.0 day
Oryctolagus cuniculus [35] = assay: Adjuvant activity in Enterococcus faecium PpiC-immunized New Zealand rabbit model assessed as production of PpiC specific antibody in sera at 1:25600 dilutions at 70.2 ug administered on day 0, 14 ug on day 7 and 14 and measured after 28 days absorbance based analysis; format: functional, organism-based; conditions: time 28.0 day
Oryctolagus cuniculus [36] = assay: Adjuvant activity in Enterococcus faecium PpiC-immunized New Zealand rabbit model assessed as production of PpiC specific antibody in terminal bleed sera at 1:1600 dilutions at 70.2 ug administered on day 0, 14 ug on day 7 and 14 and measured after 28 days by ELISA; format: functional, organism-based; conditions: time 28.0 day
Oryctolagus cuniculus [37] = assay: Adjuvant activity in Enterococcus faecium PpiC-immunized New Zealand rabbit model assessed as antibody production by measuring increase in vancomycin resistant Enterococcus faecium 11236/1 specific antibodies at 70.2 ug administered on day 0, 14 ug on day 7 and 14 and measured after 28 days by Whole-bacterial cell ELISA; format: functional, organism-based; conditions: time 28.0 day

## CCCCCCCCCCCC(=O)N[C@H]1[C@H](OC(=O)CCCCCCCCCCC)O[C@H](COC(=O)C(C)(CO)CO)[C@@H](OP(=O)([O-])[O-])[C@@H]1OC(=O)CCCCCCCCCCC.[Na+].[Na+]
[1]
  Activity: Active
[2]
  Activity: inactive
THP1-Xblue [3]
  Activity: Dose-Dependent Effect
THP1-Xblue [4]
  Activity: Dose-Dependent Effect
THP1-Xblue [5]
  Activity: Dose-Dependent Effect
[6]
  Activity: Active
[7]
  Activity: Active
[8]
  Activity: Active
[9]
  Activity: 15.3%
[10]
  Activity: 19%
[11]
  Activity: Non-Toxic
THP1-Xblue [12]
  Activity: inactive
THP1-Xblue [13]
  Activity: inactive
THP1-Xblue [14]
  Activity: inactive
THP1-Xblue [15]
  Activity: inactive
Mus musculus [16]
  Activity: Active
Mus musculus [17]
  Activity: Active
Mus musculus [18]
  Activity: Active
Mus musculus [19]
  Activity: inactive
[20]
  Activity: Non-Toxic
[21]
  Activity: Non-Toxic
[22]
  Activity: Non-Toxic
Oryctolagus cuniculus [23]
  Activity: Active
Oryctolagus cuniculus [24]
  Activity: inactive
Oryctolagus cuniculus [25]
  Activity: Active
Oryctolagus cuniculus [26]
  Activity: Active
Oryctolagus cuniculus [27]
  Activity: Active
Oryctolagus cuniculus [28]
  Activity: Active
Oryctolagus cuniculus [29]
  Activity: Active

## CCCCCCCCCCCC(=O)N[C@H]1[C@H](OC(=O)CCCCCCCCCCC)O[C@H](CO)[C@@H](OP(=O)(O)O)[C@@H]1OC(=O)CCCCCCCCCCC
THP1-Xblue [30]
  Activity: inactive
[9]
  Activity: 1.3%
[10]
  Activity: 1.8%

## CCCCCCCCCCCCCC(=O)O[C@H](CCCCCCCCCCC)CC(=O)N[C@H]1[C@H](OC[C@H]2OC(O)[C@H](NC(=O)C[C@H](O)CCCCCCCCCCC)[C@@H](OC(=O)C[C@H](O)CCCCCCCCCCC)[C@@H]2O)O[C@H](CO)[C@@H](OP(=O)(O)O)[C@@H]1OC(=O)C[C@@H](CCCCCCCCCCC)OC(=O)CCCCCCCCCCCCC (some centres not stated)
Mus musculus [16]
  Activity: Active
Mus musculus [17]
  Activity: Active
Mus musculus [18]
  Activity: Active
Mus musculus [31]
  Activity: Active
Oryctolagus cuniculus [32]
  Activity: Active
Oryctolagus cuniculus [33]
  Activity: Active
Oryctolagus cuniculus [34]
  Activity: Active
Oryctolagus cuniculus [35]
  Activity: Active
Oryctolagus cuniculus [36]
  Activity: Active
Oryctolagus cuniculus [37]
  Activity: Active
